This assay has as its system P388 leukemia ip, CD2F1 mice, survival T/C. The assay can be described thus: NCI In Vivo Anticancer Drug Screen. Data for tumor model P388 Leukemia (intraperitoneal) in CD2F1 (CDF1) mice. Conditions: endpoint: median survival time, higher = longer survival. Summed up: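 Mice carrying the transplanted tumor received test compound or vehicle. Survival was recorded in each group, and the value is the treated-group measurement divided by that of the vehicle-treated control group.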

Where [1] appears, read: dose: 25.0 mg/kg/injection, schedule: Q01DX009 (ip), vehicle: saline.
Where [2] appears, read: dose: 50.0 mg/kg/injection, schedule: Q01DX009 (ip), vehicle: saline.
Setting [3] is: dose: 100.0 mg/kg/injection, schedule: Q01DX009 (ip), vehicle: saline.
[4] abbreviates: dose: 60.0 mg/kg/injection, schedule: Q01DX005 (ip), vehicle: saline with Tween-80.
Where [5] appears, read: dose: 120.0 mg/kg/injection, schedule: Q01DX005 (ip), vehicle: saline with Tween-80.
Where [6] appears, read: dose: 50.0 mg/kg/injection, schedule: Q01DX005 (ip), vehicle: saline with Tween-80.
[7] abbreviates: dose: 100.0 mg/kg/injection, schedule: Q01DX005 (ip), vehicle: saline with Tween-80.

Values joined by “and” are separate entries in the source; they are usually repeats but may differ in a detail not shown here. Equal entries are not always repeated. Toxic doses and inconclusive results are not listed.

Regarding `NCCc1ccc(O)c(O)c1`, the T/C runs as follows: (dose: 1.5 mg/kg/injection, schedule: Q01DX009 (ip), vehicle: saline) 100 % of control and 96 % of control; (dose: 15.0 mg/kg/injection, schedule: Q01DX009 (ip), vehicle: saline) 99 % of control and 100 % of control; under setting [1], 108 % of control; (dose: 50.0 mg/kg/injection, schedule: Q01DX009 (ip), vehicle: other) 101 % of control; under setting [2], 107 % of control and 108 % of control; (dose: 100.0 mg/kg/injection, schedule: Q01DX009 (ip), vehicle: other) 83 % of control. For the same compound, the T/C under setting [3] is 101 % of control and 108 % of control; the T/C (dose: 150.0 mg/kg/injection, schedule: Q01DX009 (ip), vehicle: saline) was 123 % of control; the T/C (dose: 200.0 mg/kg/injection, schedule: Q01DX009 (ip), vehicle: other) is 90 % of control; the T/C (dose: 200.0 mg/kg/injection, schedule: Q01DX009 (ip), vehicle: saline) was 112 % of control and 115 % of control; the T/C (dose: 300.0 mg/kg/injection, schedule: Q01DX009 (ip), vehicle: saline) is 92 % of control; the T/C (dose: 400.0 mg/kg/injection, schedule: Q01DX009 (ip), vehicle: other) is 83 % of control. The T/C runs as follows: (dose: 400.0 mg/kg/injection, schedule: Q01DX009 (ip), vehicle: saline) 99 % of control and 121 % of control; (dose: 600.0 mg/kg/injection, schedule: Q01DX009 (ip), vehicle: saline) 153 % of control.

In the case of `O=C(NC1C=Nc2ccc(Cl)cc2NC1=O)c1ccc(Cl)cc1` (configuration not stated), the T/C was 91 % of control (dose: 60.0 mg/kg/injection, schedule: Q01DX005 (ip), vehicle: Klucel (hydroxypropylcellulose) (HPC)); 91 % of control (dose: 120.0 mg/kg/injection, schedule: Q01DX005 (ip), vehicle: Klucel (hydroxypropylcellulose) (HPC)); 93 % of control (dose: 240.0 mg/kg/injection, schedule: Q01DX005 (ip), vehicle: Klucel (hydroxypropylcellulose) (HPC)).

In the case of `CCOC(=O)/C=C(\C)NC(C)=NC(C)(C)C`, the T/C under setting [2] was 93 % of control and the T/C under setting [3] is 89 % of control.

Take `CC(C)C(O)(C(=O)OCN1C(=O)C2C3C=CC(C2C1=O)C1C2C(=O)N(COC(=O)C(O)(C(C)C)C(C)O)C(=O)C2C31)C(C)O` (configuration not stated): the T/C (dose: 12.5 mg/kg/injection, schedule: Q01DX009 (ip), vehicle: saline) is 110 % of control; the T/C under setting [1] was 103 % of control; the T/C under setting [2] was 109 % of control; the T/C under setting [3] was 115 % of control.

With `CCOCC(=O)C1(O)Cc2c(O)c3c(c(O)c2C(O)C1)C(=O)c1c(OC)cccc1C3=O` (configuration not stated), the T/C is, setting by setting: (dose: 1.56 mg/kg/injection, schedule: Q01DX009 (ip), vehicle: other) 101 % of control; (dose: 3.13 mg/kg/injection, schedule: Q01DX009 (ip), vehicle: other) 100 % of control; (dose: 6.25 mg/kg/injection, schedule: Q01DX009 (ip), vehicle: other) 100 % of control; (dose: 12.5 mg/kg/injection, schedule: Q01DX009 (ip), vehicle: other) 95 % of control; (dose: 25.0 mg/kg/injection, schedule: Q01DX009 (ip), vehicle: other) 103 % of control.

Consider `Cn1c2ccccc2c2nnc(N/N=C/c3cccnc3)nc21`, for which the T/C is 91 % of control (dose: 100.0 mg/kg/injection, schedule: Q04DX002 (ip), vehicle: saline with Tween-80); 86 % of control and 90 % of control (dose: 200.0 mg/kg/injection, schedule: Q04DX002 (ip), vehicle: saline with Tween-80); 99 % of control and 90 % of control and 95 % of control (dose: 400.0 mg/kg/injection, schedule: Q04DX002 (ip), vehicle: saline with Tween-80).

Regarding `COC12CCCC3(OCCO3)C1C(Cl)C2Cl` (configuration not stated), the T/C under setting [4] is 98 % of control and the T/C under setting [5] is 88 % of control.

For the compound `CN(C)CCCNc1cc(O)c2c(c1O)C(=O)c1ccccc1C2=O`, the T/C is 102 % of control (dose: 12.5 mg/kg/injection, schedule: Q04DX003 (ip), vehicle: water); 109 % of control (dose: 25.0 mg/kg/injection, schedule: Q01DX009 (ip), vehicle: water); 100 % of control (dose: 25.0 mg/kg/injection, schedule: Q04DX003 (ip), vehicle: water); 120 % of control (dose: 50.0 mg/kg/injection, schedule: Q01DX009 (ip), vehicle: water); 115 % of control (dose: 50.0 mg/kg/injection, schedule: Q04DX003 (ip), vehicle: water); 110 % of control (dose: 88.0 mg/kg/injection, schedule: Q01DX009 (ip), vehicle: other). Besides, the T/C by setting is: (dose: 100.0 mg/kg/injection, schedule: Q01DX009 (ip), vehicle: water) 116 % of control; (dose: 100.0 mg/kg/injection, schedule: Q04DX003 (ip), vehicle: water) 103 % of control; (dose: 133.0 mg/kg/injection, schedule: Q01DX009 (ip), vehicle: other) 117 % of control; (dose: 200.0 mg/kg/injection, schedule: Q04DX003 (ip), vehicle: water) 111 % of control.

As for `CS(=O)(=O)c1nnc(-c2cccc[n+]2[O-])s1`, the T/C (dose: 50.0 mg/kg/injection, schedule: Q01DX005 (ip), vehicle: Klucel (hydroxypropylcellulose) (HPC)) is 116 % of control and the T/C (dose: 100.0 mg/kg/injection, schedule: Q01DX005 (ip), vehicle: Klucel (hydroxypropylcellulose) (HPC)) is 114 % of control.

In the case of `S=C(Nc1ccc(Br)c(Cl)c1)SCc1ccc2c(c1)OCO2`, the T/C (dose: 25.0 mg/kg/injection, schedule: Q01DX009 (ip), vehicle: Klucel (hydroxypropylcellulose) (HPC)) was 121 % of control; the T/C (dose: 50.0 mg/kg/injection, schedule: Q01DX009 (ip), vehicle: Klucel (hydroxypropylcellulose) (HPC)) is 107 % of control; the T/C (dose: 50.0 mg/kg/injection, schedule: Q01DX009 (ip), vehicle: suspension in saline) was 105 % of control; the T/C (dose: 100.0 mg/kg/injection, schedule: Q01DX009 (ip), vehicle: Klucel (hydroxypropylcellulose) (HPC)) is 123 % of control; the T/C (dose: 100.0 mg/kg/injection, schedule: Q01DX009 (ip), vehicle: suspension in saline) was 104 % of control; the T/C (dose: 200.0 mg/kg/injection, schedule: Q01DX009 (ip), vehicle: suspension in saline) was 116 % of control.

In the case of `Cc1noc(NS(=O)(=O)c2ccc(N=Nc3cc(N=Nc4ccc(S(=O)(=O)Nc5onc(C)c5C)cc4)c4c(NC(=O)C(Cl)Cl)cccc4c3O)cc2)c1C` (tested in a mixture with another compound), under setting [6], the T/C is 117 % of control and 118 % of control.

Turning to `C/C=C/C[P+](CC)(c1ccccc1)c1ccccc1`, the T/C (dose: 0.78 mg/kg/injection, schedule: Q01DX009 (ip), vehicle: saline) is 103 % of control; the T/C (dose: 1.56 mg/kg/injection, schedule: Q01DX009 (ip), vehicle: saline) is 97 % of control; the T/C (dose: 3.13 mg/kg/injection, schedule: Q01DX009 (ip), vehicle: saline) is 112 % of control.

Turning to `CCCSP(=S)(c1ccc(Cl)cc1)c1ccc(Cl)cc1`, the T/C is 106 % of control (dose: 100.0 mg/kg/injection, schedule: Q04DX002 (ip), vehicle: saline); 103 % of control (dose: 200.0 mg/kg/injection, schedule: Q04DX002 (ip), vehicle: saline); 103 % of control (dose: 400.0 mg/kg/injection, schedule: Q04DX002 (ip), vehicle: saline).

With `C/C(=N\NC(=S)Nc1ccc(C(=O)O)cc1)c1ccc2ccccc2n1`, the T/C reads like this: under setting [6], 105 % of control; under setting [7], 114 % of control.

For `CCOC(=O)/N=[N+](\[O-])c1cccc(Br)c1`, where the note is “dose: 100.0 mg/kg/injection, schedule: Q01DX001 (ip), vehicle: Klucel (hydroxypropylcellulose) (HPC)”, the T/C is 101 % of control.

As for `C=CCOc1cc2c(cc1C/C=C/c1ccccc1)OCO2`, the T/C was 102 % of control under setting [6]; 103 % of control under setting [7]; 109 % of control (dose: 200.0 mg/kg/injection, schedule: Q01DX005 (ip), vehicle: saline with Tween-80).

`COc1ccc2c(c1)CN(C)c1ccc(OC)cc1CN2C`: the T/C is, setting by setting: under setting [4], 100 % of control; under setting [5], 104 % of control; (dose: 240.0 mg/kg/injection, schedule: Q01DX005 (ip), vehicle: saline with Tween-80) 100 % of control.

The record behind these values is PubChem BioAssay AID330 (DTP/NCI, 2004).
